Source: patent publication US9757456B2, “Super-saturating delivery vehicles for poorly water-soluble pharmaceutical and cosmetic active ingredients and suppression of crystallization of pharmaceutical active ingredients” (Nanologica AB, priority 2010, dated 2017)
In brackets after ≈: the same amount, converted by molar mass.

Key:
[1] = Solubility and release of Retinol / Retinol 50C in water; type: physicochemical; conditions: 37° C., 150 rpm, after 20 days release from a nanoporous material
Description: As a mesoporous silica material, AMS-6 was selected in this example, having an Ia3d cubic pore structures, and a small pore diameter (around 4 nm average). Prior to the loading, AMS-6 was thermally treated in order to increase the hydrophobic of the inner/outer surface. 10 grams of calcined AMS-6 were placed in an oven and heated at 600° C. during 12 hours. The selected active ingredient was Retinol 50C. Retinol 50C is a formulation comprising pure Retinol and an excipient namely Polisorbate 20 used as stabilizer. […] The percentage of each component in the formulation is 50% in weight.

[2] = Dissolution / kinetic release of atazanavir from nanoporous silica in simulated intestine fluid (SIF); type: physicochemical
Description: In order to compare the concentrations of atazanavir crystallite and atazanavir in nanoporous silica, the UV absorbance scans of atazanavir in SIF with the time are shown in FIG. 1. […] The atazanavir super-saturating solutions from the nanoporous silica. […] Particularly, the super-saturating state produced from NFM-1 could be maintain for 24 hours, and the other two could maintain for 7 hours.
For nanoporous material NFM-1 loaded with ATV, the dissolution rate appears to decrease with increased particle concentration as a percentage of loaded amount. […] In the case of the highest particle concentration, a supersaturation state is maintained for 4 hours after which the dissolution decreases rapidly due to crystallization of the drug in the water bath in which the dissolution study is conducted.

[3] = cited from earlier work
[4] = cited from earlier work; remark: listed apart in the source

| Compound | concentration of Retinol dissolved in water [1] [ng/mL] | solubility in SIF (in words) ([2]; UV absorbance over time) | solubility at 4 h ([2]; simulated intestine fluid (SIF), fassgf or other biorelevant, thermodynamic from solid, after 4 hours, higher concentration of NFM-1-ATV particles, read-out: maximum solubility) [µg/mL] | log P [3] | reduction in plasma concentration (Cmin) ([4]; co-administered with proton pump inhibitors) [%] | bioavailability ([4]; in vivo) | half-life ([4]; in vivo) [h] |
| --- | --- | --- | --- | --- | --- | --- | --- |
| CC1=C(/C=C/C(C)=C/C=C/C(C)=C/CO)C(C)(C)CCC1 [Retinol] | 3400 | – | – | – | – | – | – |
| COC(=O)N[C@H](C(=O)N[C@@H](Cc1ccccc1)[C@@H](O)CN(Cc1ccc(-c2ccccn2)cc1)NC(=O)[C@@H](NC(=O)OC)C(C)(C)C)C(C)(C)C [Atazanavir] | – | very low | 0.254 (≈ 0.36 µM) | 5.20 | ≤ 78 | 60-68% | 6.5 |
